Entries after “also recorded” stand apart in the source; their conditions may differ. Like-named read-outs stand apart in the source and are kept apart here. Residues, ends and D or L forms follow the SMILES beside them. *: point of attachment. Cbz = O=C(OCc1ccccc1)*

Series [1] deals with TCR-stimulated human CD4+ memory T cells. As to the kind of experiment: Cytokine ELISA of culture supernatants, CD4+ memory T cells. Format: cell-based. Particulars: for IL-17A production by CD4+ memory T cells / IFN-γ production by CD4+ memory T cells: TCR stimulation 3 days, Bi2 10 μM, JPH203 10 μM, LβhL 400 mg/L; for IL-17A production by CD4+ memory T cells: statin 10 μM; for IFN-γ production by CD4+ memory T cells: HMB 0.4 mM, VH298 100 nM. The protocol: The study protocol was reviewed and approved by the Institutional Review Board (IRB) of Seoul National University Hospital. Peripheral blood was drawn from healthy controls (HC) after obtaining written consent from study participants, and all experiments were performed according to approved guidelines. Peripheral blood mononuclear cells (PBMCs) were isolated from peripheral blood using density gradient centrifugation (Biocoll separation solution; BIOCHROM Inc., Cambridge, UK). Total CD4^+ T cells, naive T cells and memory CD4^+ T-cells were isolated in a negative selection manner from CD14^+ monocyte depleted PBMCs using the MojoSort™ Human Total CD4^+ T-Cells, CD4^+ naive T-cells and CD4^+ memory T-cell isolation kit (BioLegend, San Diego, Calif.). Purified T cells were cultured in RPMI 1640 medium (hereinafter, “complete RPMI 1640”) supplemented with 10% fetal bovine serum (FBS), 1% penicillin/streptomycin, and 1% L-glutamine. Cells were stimulated with anti-CD3/CD28-coated microbeads (1:10 ratio, Dynabeads T-Activator CD3/CD28, Thermo Fisher Scientific, Waltham, MA) in the presence of designated chemical inhibitors or reagents including 2-amino-2-norbornanecarboxylic acid (BCH), JPH203, acetate, MG132, VH298, cobalt chloride (CoCl2), cycloheximid (CHX) (all provided by Sigma-Aldrich, St. Louis, MO), BCAT1 inhibitor 2 (Bi2: provided by Cayman Chemical, Ann Arbor, MI), 3-hydroxy-3-methylbutyric acid (HMB; provided by Thermo Fisher Scientific, Waltham, MA), and L-β-homoleucine (LβhL; provided by Santa Cruz Biotechnology, Heidelberg, Germany). In some experiments, a customized medium depleted of five essential amino acids (leucine, valine, isoleucine, phenylalanine, methionine) was used (Welgene, Gyeongsan, South Korea). All amino acids used (L-leucine, L-valine, L-isoleucine, L-phenylalanine, L-methionine) were purchased from Sigma-Aldrich.
IL-17A and IFN-γ amounts in culture supernatants were quantified using commercially available human ELISA kits (IL-17A ELISA kit by eBioscience and human IFN-γ ELISA MAX Deluxe by BioLegend) according to the manufacturer's instructions. Light density was measured using an Infinite M200 instrument (Tecan, Männedorf, Switzerland).

Series [2] concerns TCR-stimulated human CD4+ T cells. As to the kind of experiment: 3H-leucine uptake assay. Particulars: BCH 50 mM, JPH203 10 μM, LβhL 400 mg/L. Format: cell-based. The protocol: After the culture medium was removed, the cells were cultured in HBSS for 10 minutes. ^3H-leucine or ^3H-methionine (Perkin Elmer, Waltham, MA) uptake assays were initiated by culturing cells for 15 min in HBSS with 0.5-1 μCi. Cells were separated with 1 M NaOH after three washes with ice-cold HBSS. Radioactivity was measured using a beta scintillation counter MicroBeta® (Perkin Elmer).

Series [3] deals with human CD4+ naive and memory T cells. As to the kind of experiment: CFSE dilution proliferation assay. Format: cell-based. Particulars: anti-CD3/CD28 microbeads; Bi2 10 μM, JPH203 10 μM, LβhL 400 mg/L. The protocol: To analyze T cell proliferative capacity, purified isolated human CD4+ T cells were labeled with 1 μM carboxyfluorescein succinimidyl ester (CFSE; Invitrogen, Waltham, MA, USA) and then stimulated with anti-CD3/CD28 antibody coated microbeads for 4 days at 37° C. Cells were stained with 7AAD (BD Biosciences) for 10 minutes to distinguish dead cells and the extent of CFSE dilution in 7AAD-cells was measured by BD LSRFortessa to analyze proliferative capacity. Antibodies listed in Table 2 and previously known BD LSRFortessa cell analyzers were used.

For the next series, the system named is EAE mice. Nature of the series: Experimental autoimmune encephalomyelitis (EAE) model. It is filed as in vivo, mouse.
Series [4] concerns TCR-stimulated human CD4+ naive T cells. As to the kind of experiment: Cytokine ELISA of culture supernatants, CD4+ naive T cells. Format: cell-based. Particulars: TCR stimulation 3 days.
Series [5] concerns HIF-1α. As to the kind of experiment: HIF-1α immunoblot in TCR-stimulated CD4+ memory T cells. Particulars: for HIF-1α expression reduced by Bi2 (effect of added substance): Bi2 plus HMB 0.4 mM, CoCl2, VH298 or MG132; for HIF-1α protein expression: TCR-stimulated CD4+ memory T cells, Bi2 10 μM, CoCl2 100 μM, VH298 100 μM, MG132 5 μM. Format: cell-based, human. The protocol:
(§1) Cells were cultured in radioimmunoprecipitation assay (RIPA) buffer (150 mM NaCl, 10 mM Na2HPO4, pH 7.2, 1% Nonidet P-40, 0.5% deoxycholate) containing phenylmethylsulfonyl fluoride (PMSF; Millipore Sigma, Burlington, MA), EDTA, protease and phosphatase inhibitor cocktail (Thermo Fisher Scientific) to extract total protein. Proteins were separated on 8-10% SDS-polyacrylamide gels and blotted onto polyvinylidene difluoride (PVDF) membranes (Bio-Rad, Hercules, CA) followed by 5% BSA in Tris buffered saline (TBS) with 0.1% Tween 20 and blocked for 1 hour. Membranes were cultured overnight with anti-human SLC7A5, anti-BCAT, anti-phospho-p70S6K, anti-p70S6K, anti-HIF-1α (all provided by Cell Signaling Technology, Danvers, MA) primary antibodies at 4° C., followed by culture with HRP-conjugated secondary antibodies for 1 hour at room temperature. Membranes were developed using SuperSignal West Femto Maximum Sensitivity Substrate or SuperSignal West Pico PLUS Chemiluminescent Substrate system (Thermo Fisher Scientific).

In series [6] the test system is human CD4+ memory T cells. Nature of the series: Cholesterol analysis in cell lysates. It is filed as cell-based. Particulars: Bi2 10 μM plus HMB 0.4 mM. On the procedure: Total cholesterol amount in cultured cells was determined using a fluorometric Amplex™ Red Cholesterol Assay Kit (Thermo Fisher Scientific) according to the manufacturer's instructions.
In series [7] the test system is HIF-1α. As to the kind of experiment: RT-qPCR of HIF-1α and HIF-1α target genes in CD4+ memory T cells. Format: cell-based, human. Particulars: HMB 0.4 mM. The protocol: Total RNA was prepared using TRIzol reagent (Life Technologies, Grand Island, NY), followed by cDNA synthesis (Promega, Madison, WI), followed by real-time quantitative RT-PCR with a CFX system (Bio-Rad, Hercules, CA) using SensiFAST SYBR® Lo-ROX (Bioline, London. UK). Gene expression levels were normalized for […] expression using the comparative CT method (ΔΔCT).

The subject of another series is mTORC1. As to the kind of experiment: Phospho-p70-S6K immunoblot (mTORC1 activity) in CD4+ memory T cells. Particulars: HMB 0.4 mM, TCR stimulation 1 hour. Format: cell-based, human. On the procedure:
as §1

The conditions of series [8]: oral administration, healthy adults; cited from earlier work.
Setting [9] is: Bi2 10 μM plus acetate, HMB or VH298, 3 days.
Where [10] appears, read: Bi2 10 mg/kg or LβhL 1 g/kg i.p.

As to `CC(=O)O` [acetate], the “IL-17A production in Bi2-treated CD4+ memory T cells (effect of added substance)” value (“IL-17A production … (effect of added substance)” below) in series [1] (setting [9]) is “dose-dependently reduced”. For the same compound, the “IFN-γ production in Bi2-treated CD4+ memory T cells (effect of added substance)” value in [1] (Bi2 10 μM plus acetate, 3 days) is “upregulated”.
As for `CC(C)C[C@H](N)CC(=O)O` [LβhL, L-β-homoleucine], in series [2], the 3H-leucine uptake entry is recorded as “competitively inhibited”. In addition, the “proliferation (CFSE dilution)” value in [3] was “did not affect”. The “IL-17A production by CD4+ memory T cells” value in [1] is recorded as “preferentially reduced; also recorded: attenuates”. For the same compound, in the series with EAE mice (setting [10]), the “CD4+ T-cells producing IL-17A in spinal cord infiltrates and draining LN” value is recorded as “significantly reduced”; the “HIF-1α expression in CD4+ T-cells of spinal cord (intracellular staining)” value was “decreased”; the “cell infiltration in spinal cord” value is “significantly lower”; the “nerve damage, spinal cord histology” value is “significantly lower”. The “EAE clinical score / severity” value with EAE mice (i.p. three times a week for 14 days, Bi2 10 mg/kg, LβhL 1 g/kg) is reported as “attenuated; also recorded: improves EAE induction”.
As to `Nc1cc(COc2c(Cl)cc(C[C@H](N)C(=O)O)cc2Cl)c2oc(-c3ccccc3)nc2c1` [JPH203], in [2], the 3H-leucine uptake result was “greatly reduced”. In [3], the “proliferation (CFSE dilution)” value is “completely blocked”. In [1], the “IFN-γ production by CD4+ memory T cells” value was “decreased significantly” and the “IL-17A production by CD4+ memory T cells” value is recorded as “decreased significantly”. Further, in series [4], the “IL-2 production by CD4+ naive T cells” value is listed as “not affected”.
Take `[Cl][Co][Cl]` [CoCl2, cobalt chloride]: in the series with HIF-1α [5], the “HIF-1α expression reduced by Bi2 (effect of added substance)” value (“HIF-1α expression reduced by Bi2” for short) is recorded as “none of these inhibitors affected” and the HIF-1α protein expression entry is given as “accumulation of HIF-1α”.
In the same order, the values of `CC(C)C[C@@H](C=O)NC(=O)[C@H](CC(C)C)NC(=O)[C@H](CC(C)C)NC(=O)OCc1ccccc1` [MG132] (Cbz-Leu-Leu-Leu-aldehyde) are “none of these inhibitors affected” and “accumulation of HIF-1α”.
Turning to `NC1(C(=O)O)CC2CCC1C2` (centres unmarked) [BCH, 2-amino-2-norbornanecarboxylic acid], in [2], the 3H-leucine uptake result is listed as “greatly reduced”.
Turning to `CC(C)(O)CC(=O)O` [HMB, 3-hydroxy-3-methylbutyric acid], the “IL-17A production … (effect of added substance)” value in series [1] (setting [9]) was “partially reversed; also recorded: resolved”. Further, in [1], the “IFN-γ production by CD4+ memory T cells” value is on record as “not affected; also recorded: did not affect”. Besides, the “cholesterol in Bi2-treated cells (effect of HMB supplementation)” value in series [6] is given as “inhibited; also recorded: decreased”. Further, in the series with HIF-1α [5] (24 h Bi2 pretreatment, cycloheximide chase, with or without HMB), the HIF-1α degradation rate result is recorded as “did not affect”. The “HIF-1α expression reduced by Bi2” value in the series on HIF-1α [5] is listed as “abrogates this attenuation; also recorded: reversed; also recorded: increased”. Moreover, in the series on HIF-1α [7], the “Bi2-reduced HIF-1α mRNA (effect of HMB supplementation)” value is “rapidly abolished”. Also, the “Bi2-reduced SCL2A1, LDHA and PGK1 mRNA (effect of HMB supplementation)” value in the series with HIF-1α [7] (72 hours of TCR stimulation) was “eliminated”. Moreover, the “inhibition of mTORC1 activity by Bi2 (effect of HMB supplementation)” value with mTORC1 is “time dependently counteracted”. For the same compound, in series [8], the plasma half-life result was “about 2.5 hours”, the plasma level achievable was 400 µM and the “time to peak plasma level” value was 60 to 120 min.
`Cc1ncsc1-c1ccc(CNC(=O)[C@@H]2C[C@@H](O)CN2C(=O)[C@@H](NC(=O)C2(C#N)CC2)C(C)(C)C)cc1` [VH298]: in [1], the “IL-17A production … (effect of added substance)” value is reported as “restores; also recorded: fully restored” and the “IFN-γ production by CD4+ memory T cells” value is listed as “did not affect”. Besides, in the series on HIF-1α [5], the “HIF-1α expression reduced by Bi2” value was “none of these inhibitors affected” and the HIF-1α protein expression entry is on record as “accumulation of HIF-1α”.

Source of the values: US20260076937A1, “COMPOSITION FOR PREVENTING OR TREATING AUTOIMMUNE DISEASES COMPRISING A BCAT1 INHIBITOR” (Seoul National University R&DB Foundation, priority 2024, published 2026).
